Measured values reported in patent US8354419B2, “Benzimidazole analogues for the treatment or prevention of flavivirus infections” (Vertex Pharmaceuticals Incorporated, priority 2009, dated 2013).
pEC50: −log10 of the molar value.

test system: HCV (Ib) RNA replication; assay: Cell-based luciferase reporter HCV (1b) RNA replication assay (replicon cell lines Huh-7 5.2 and ET); parameters: species or system Hepatitis C virus; conditions: Hepatitis C virus, Huh-7, 96 h, HCV 1b genotype replicon, luciferase readout, 4 days incubation; read-out: EC50_1b
Method in brief: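 Huh-7-derived 5.2 or ET replicon cells carrying a firefly luciferase reporter were seeded at ~3000 cells/well in medium without G418 or phenol red. Compound was added after 3-4 h, followed by 4 days at 37 °C. Luciferase readout was used, with IC50 fitted by nonlinear regression from eleven concentrations in duplicate.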

`CCC(C)CN1CCC[C@H]1c1nc2cc(C#Cc3ccc4[nH]c([C@@H]5CCCN5CC(C)CC)nc4c3)ccc2[nH]1` (stereo partly shown) [Compound 137] and `CCC(CC)CN1CCC[C@H]1c1nc2cc(C#Cc3ccc4[nH]c([C@@H]5CCCN5CC(CC)CC)nc4c3)ccc2[nH]1` [Compound 140] fall in the same range of pEC50: 5.30 to 8.30 for the first, 5.30 to 8.30 for the second.

`C(#Cc1ccc2[nH]c([C@@H]3CCCN3CCC3CCOCC3)nc2c1)c1ccc2[nH]c([C@@H]3CCCN3CCC3CCOCC3)nc2c1` [Compound 138] and `C(#Cc1ccc2[nH]c([C@@H]3CCCN3CC3CCCC3)nc2c1)c1ccc2[nH]c([C@@H]3CCCN3CC3CCCC3)nc2c1` [Compound 139] fall in the same range of pEC50: 5.30 to 8.30 for the first, 5.30 to 8.30 for the second.

`COC(=O)N[C@H](C(=O)N1CCC[C@H]1c1nc2cc(-c3ccc(-c4ccc5nc([C@@H]6CCCN6C(=O)[C@@H](NC(=O)OC)C(C)C)[nH]c5c4)cc3[N+](=O)[O-])ccc2[nH]1)C(C)C` [Compound 141] and `COC(=O)N[C@H](C(=O)N1CCC[C@H]1c1nc2cc(-c3ccc(-c4ccc5nc([C@@H]6CCCN6C(=O)[C@@H](NC(=O)OC)C(C)C)[nH]c5c4)cc3CO)ccc2[nH]1)C(C)C` [Compound 161] cannot be ordered by pEC50: no less than 8.30 for the first, no less than 8.30 for the second.

`COC(=O)N[C@H](CC1CCC1)C(=O)N1CCC[C@H]1c1nc2ccc(C#Cc3ccc4nc([C@@H]5CCCN5C(=O)[C@@H](CC5CCC5)NC(=O)OC)[nH]c4c3)cc2[nH]1` [Compound 142] and `COC(=O)N[C@H](C(=O)N1CCC[C@H]1c1nc2cc(C#Cc3ccc(-c4ccc5[nH]c([C@@H]6CCCN6C(=O)[C@@H](NC(=O)OC)C(C)C)nc5c4)cc3)ccc2[nH]1)C(C)C` [Compound 147] cannot be ordered by pEC50: no less than 8.30 for the first, no less than 8.30 for the second.

`COC(=O)N[C@H](C(=O)N1CCC[C@H]1c1nc2cc(-c3c(F)cc(-c4ccc5nc([C@@H]6CCCN6C(=O)[C@@H](NC(=O)OC)C(C)C)[nH]c5c4)cc3F)ccc2[nH]1)C(C)C` [Compound 143] and `COC(=O)N[C@H](C(=O)N1CCC[C@H]1c1nc2cc(-c3c(C)cc(-c4ccc5nc([C@@H]6CCCN6C(=O)[C@@H](NC(=O)OC)C(C)C)[nH]c5c4)cc3C)ccc2[nH]1)C(C)C` [Compound 149] cannot be ordered by pEC50: no less than 8.30 for the first, no less than 8.30 for the second.

`COC(=O)N[C@H](C(=O)N1CCC[C@H]1c1nc2cc(C)c(-c3ccc(-c4cc5[nH]c([C@@H]6CCCN6C(=O)[C@@H](NC(=O)OC)C(C)C)nc5cc4C)cc3)cc2[nH]1)C(C)C` [Compound 144] and `COC(=O)N[C@H](C(=O)N1CCC[C@H]1c1nc2cc(-c3cc(C)c(-c4ccc5[nH]c([C@@H]6CCCN6C(=O)[C@@H](NC(=O)OC)C(C)C)nc5c4)s3)ccc2[nH]1)C(C)C` [Compound 155] cannot be ordered by pEC50: no less than 8.30 for the first, no less than 8.30 for the second.

`COC(=O)N[C@H](C(=O)N1CC[C@H]1c1nc2ccc(-c3ccc(-c4ccc5nc([C@@H]6CCN6C(=O)[C@@H](NC(=O)OC)C(C)C)[nH]c5c4)cc3)cc2[nH]1)C(C)C` [Compound 145] and `COC(=O)N[C@H](C(=O)N1CCCC[C@H]1c1nc2ccc(-c3ccc(-c4ccc5nc([C@@H]6CCCCN6C(=O)[C@@H](NC(=O)OC)C(C)C)[nH]c5c4)cc3)cc2[nH]1)C(C)C` [Compound 148] cannot be ordered by pEC50: no less than 8.30 for the first, no less than 8.30 for the second.

`COC(=O)N[C@H](C(=O)N1CCC[C@H]1c1nc2cc(-c3ccc(-c4ccc5nc([C@@H]6CCCN6C(=O)[C@@H](NC(=O)OC)C(C)C)[nH]c5c4)c4c3OCO4)ccc2[nH]1)C(C)C` [Compound 146] and `COC(=O)N[C@H](C(=O)N1CCC[C@H]1c1nc2cc(-c3ccc(-c4ccc5nc([C@@H]6CCCN6C(=O)[C@@H](NC(=O)OC)C(C)C)[nH]c5c4)c4c3OCCO4)ccc2[nH]1)C(C)C` [Compound 172] cannot be ordered by pEC50: no less than 8.30 for the first, no less than 8.30 for the second.

`COC(=O)N[C@H](C(=O)N1CCC[C@H]1c1nc2cc(-c3ccc(-c4ccc5[nH]c([C@@H]6CCCN6C(=O)[C@@H](NC(=O)OC)C(C)C)nc5c4)c(S(C)(=O)=O)c3)ccc2[nH]1)C(C)C` [Compound 150] and `COC(=O)N[C@@H](C(=O)N1CCC[C@H]1c1nc2cc(-c3ccc(-c4ccc5[nH]c([C@@H]6CCCN6C(=O)[C@H](NC(=O)OC)C(C)C)nc5c4)cc3)ccc2[nH]1)C(C)C` [Compound 171] cannot be ordered by pEC50: no less than 8.30 for the first, 5.30 to 8.30 for the second.

`COC(=O)NCCN1CCC[C@H]1c1nc2cc(C#Cc3ccc4[nH]c([C@@H]5CCCN5CCNC(=O)OC)nc4c3)ccc2[nH]1` [Compound 151] and `Cc1nc(C)c(C(=O)N2CCC[C@H]2c2nc3cc(C#Cc4ccc5nc([C@@H]6CCCN6C(=O)c6sc(C)nc6C)[nH]c5c4)ccc3[nH]2)s1` [Compound 152] fall in the same range of pEC50: 5.30 to 8.30 for the first, 5.30 to 8.30 for the second.

`CCCC/C(=C/c1ccc2[nH]c([C@@H]3CCCN3C(=O)[C@@H](NC(=O)OC)C(C)C)nc2c1)c1ccc2[nH]c([C@@H]3CCCN3C(=O)[C@@H](NC(=O)OC)C(C)C)nc2c1` [Compound 153] and `CCCCc1cc(-c2ccc3[nH]c([C@@H]4CCCN4C(=O)[C@@H](NC(=O)OC)C(C)C)nc3c2)sc1-c1ccc2[nH]c([C@@H]3CCCN3C(=O)[C@@H](NC(=O)OC)C(C)C)nc2c1` [Compound 157] cannot be ordered by pEC50: no less than 8.30 for the first, no less than 8.30 for the second.

`COC(=O)N[C@H](C(=O)N1CCC[C@H]1c1nc2cc(-c3cc(C#N)c(-c4ccc5[nH]c([C@@H]6CCCN6C(=O)[C@@H](NC(=O)OC)C(C)C)nc5c4)cc3Cl)ccc2[nH]1)C(C)C` [Compound 154] and `COC(=O)N[C@H](C(=O)N1CCC[C@H]1c1nc2cc(-c3ccc(-c4ccc5[nH]c([C@@H]6CCCN6C(=O)[C@@H](NC(=O)OC)C(C)C)nc5c4)c4ncccc34)ccc2[nH]1)C(C)C` [Compound 163] cannot be ordered by pEC50: no less than 8.30 for the first, no less than 8.30 for the second.

`Cc1cc(-c2ccc3[nH]c([C@@H]4CCCN4C(=O)[C@@H](NC(=O)O[C@H]4CCOC4)C(C)C)nc3c2)sc1-c1ccc2[nH]c([C@@H]3CCCN3C(=O)[C@@H](NC(=O)O[C@H]3CCOC3)C(C)C)nc2c1` [Compound 156] and `CCCCc1cc(-c2ccc3[nH]c([C@@H]4CCCN4C(=O)[C@@H](NC(=O)O[C@H]4CCOC4)C(C)C)nc3c2)sc1-c1ccc2[nH]c([C@@H]3CCCN3C(=O)[C@@H](NC(=O)O[C@H]3CCOC3)C(C)C)nc2c1` [Compound 158] cannot be ordered by pEC50: 5.30 to 8.30 for the first, no less than 8.30 for the second.

`COC(=O)N[C@H](C(=O)N1CCC[C@H]1c1nc2cc(-c3csc(-c4ccc5[nH]c([C@@H]6CCCN6C(=O)[C@@H](NC(=O)OC)C(C)C)nc5c4)n3)ccc2[nH]1)C(C)C` [Compound 159] and `COC(=O)N[C@H](C(=O)N1CCC[C@H]1c1nc2cc(-c3cnc(-c4ccc5[nH]c([C@@H]6CCCN6C(=O)[C@@H](NC(=O)OC)C(C)C)nc5c4)s3)ccc2[nH]1)C(C)C` [Compound 176] cannot be ordered by pEC50: no less than 8.30 for the first, 5.30 to 8.30 for the second.

`CC(C)[C@H](NC(=O)O[C@H]1CCOC1)C(=O)N1CCC[C@H]1c1nc2cc(-c3csc(-c4ccc5[nH]c([C@@H]6CCCN6C(=O)[C@@H](NC(=O)O[C@H]6CCOC6)C(C)C)nc5c4)n3)ccc2[nH]1` [Compound 160] and `COC(=O)N[C@@H](C(=O)N1CCC[C@H]1c1nc2cc(-c3ccc(-c4ccc5[nH]c([C@@H]6CCCN6C(=O)[C@H](NC(=O)OC)C(C)C)nc5c4)nn3)ccc2[nH]1)C(C)C` [Compound 162] cannot be ordered by pEC50: 5.30 to 8.30 for the first, no less than 8.30 for the second.

`COC(=O)N[C@H](C(=O)N1CCC[C@H]1c1nc2cc(-c3ccc(-c4ccc5nc([C@@H]6CCCN6C(=O)[C@@H](NC(=O)OC)C(C)C)[nH]c5c4)cc3NC(C)=O)ccc2[nH]1)C(C)C` [Compound 164] and `COC(=O)N[C@H](C(=O)N1CCC[C@H]1c1nc2cc(-c3ccc(-c4ccc5nc([C@@H]6CCCN6C(=O)[C@@H](NC(=O)OC)C(C)C)[nH]c5c4)cc3C(F)(F)F)ccc2[nH]1)C(C)C` [Compound 177] cannot be ordered by pEC50: no less than 8.30 for the first, no less than 8.30 for the second.

`COC(=O)N[C@H](C(=O)N1C[C@H](F)C[C@H]1c1nc2cc(-c3ccc(-c4ccc5nc([C@@H]6C[C@@H](F)CN6C(=O)[C@@H](NC(=O)OC)C(C)C)[nH]c5c4)cc3)ccc2[nH]1)C(C)C` [Compound 165] and `COC(=O)N[C@H](C(=O)N1C[C@@H](F)C[C@H]1c1nc2cc(-c3ccc(-c4ccc5nc([C@@H]6C[C@H](F)CN6C(=O)[C@@H](NC(=O)OC)C(C)C)[nH]c5c4)cc3)ccc2[nH]1)C(C)C` [Compound 169] cannot be ordered by pEC50: no less than 8.30 for the first, no less than 8.30 for the second.

`COC(=O)N[C@H](C(=O)N1CCC[C@H]1c1nc2cc(-c3ccc(-c4ccc5nc([C@@H]6CCCN6C(=O)[C@@H](NC(=O)OC)C(C)C)[nH]c5c4)c(OC)c3OC)ccc2[nH]1)C(C)C` [Compound 166] and `COC(=O)N[C@H](C(=O)N1CCC[C@H]1c1nc2cc(-c3ccc(-c4ccc5nc([C@@H]6CCCN6C(=O)[C@@H](NC(=O)OC)C(C)C)[nH]c5c4)c4ocnc34)ccc2[nH]1)C(C)C` [Compound 173] cannot be ordered by pEC50: no less than 8.30 for the first, no less than 8.30 for the second.

`COC(=O)N[C@H](C(=O)N1CCC[C@H]1c1nc2cc(-c3cc4sc(-c5ccc6nc([C@@H]7CCCN7C(=O)[C@@H](NC(=O)OC)C(C)C)[nH]c6c5)cc4s3)ccc2[nH]1)C(C)C` [Compound 167] and `COC(=O)N[C@H](C(=O)N1CCOC[C@H]1c1nc2cc(-c3ccc(-c4ccc5nc([C@@H]6COCCN6C(=O)[C@@H](NC(=O)OC)C(C)C)[nH]c5c4)cc3)ccc2[nH]1)C(C)C` [Compound 168] cannot be ordered by pEC50: no less than 8.30 for the first, no less than 8.30 for the second.

`COC(=O)N[C@H](C(=O)N1CCC[C@H]1c1nc2cc(-c3ccc(-c4ccc5[nH]c([C@@H]6CCCN6C(=O)[C@@H](NC(=O)OC)[C@@H](C)OC)nc5c4)cc3)ccc2[nH]1)[C@@H](C)OC` [Compound 170] and `CCOC(=O)N[C@H](C(=O)N1CCC[C@H]1c1nc2cc(-c3ccc(-c4ccc5[nH]c([C@@H]6CCCN6C(=O)[C@@H](NC(=O)OCC)C(C)C)nc5c4)cc3)ccc2[nH]1)C(C)C` [Compound 178] cannot be ordered by pEC50: no less than 8.30 for the first, no less than 8.30 for the second.

`COC(=O)N[C@H](C(=O)N1C[C@H](OC)C[C@H]1c1nc2cc(-c3ccc(-c4ccc5[nH]c([C@@H]6C[C@@H](OC)CN6C(=O)[C@@H](NC(=O)OC)C(C)C)nc5c4)cc3)ccc2[nH]1)C(C)C` [Compound 174] and `COC(=O)NC(C(=O)N1CCCC1c1nc2cc(-c3ccc(-c4ccc5[nH]c([C@@H]6CCCN6C(=O)C(NC(=O)OC)C(C)(C)F)nc5c4)cc3)ccc2[nH]1)C(C)(C)F` (stereo partly shown) [Compound 179] cannot be ordered by pEC50: no less than 8.30 for the first, no less than 8.30 for the second.

With `COC(=O)NC(C(=O)N1CCC[C@H]1c1nc2cc(-c3ccc(-c4ccc5[nH]c([C@@H]6CCCN6C(=O)C(NC(=O)OC)C(C)(C)F)nc5c4)cc3)ccc2[nH]1)C(C)(C)F` (stereo partly shown) [Compound 180] the pEC50 was no less than 8.30.
